In patent US8377934B2, “Use of stilbene derivatives for treatment and prevention of aquatic mold infections” (State of Israel, Ministry of Agriculture & Rural …, priority 2006, dated 2013):

What was measured:
S. parasitica = assay: Tilapia-saprolegniosis established infection model; assay type: in vivo; settings: 50 and 100 mg/L on 3rd and 8th day
Experimental: Tilapia were exposed to S. parasitica and treated with Blankophor® BA (100, 50 and 25 mg/L), as described in Example 4, with the exception that Blankophor® BA treatment was started on the 3rd day after initiation of the infection, and repeated on the 8th day. By the starting point of the Blankophor® BA treatment, approximately 50% of the fish had established infection, as indicated by the presence of white skin lesions and a mortality rate of approximately 30%.

Saprolegnia sp. = assay: Non-randomized field trial in a cement pond, oomycete disease; assay type: in vivo, hybrid tilapia; settings: 50 mg/L
Experimental: (§1) Following transfer of 2000 hybrid tilapia fish (20-30 g) to a cement pond (1×10^5 L, 21 to 25° C.), white patches of filamentous mycelium were observed on the body and fins of fish, covering in most cases about 80% of the body surface. The mycelia appeared about four days after the transfer, presumably due to opportunistic infection by Saprolegnia sp. following handling stress. Death of 20 to 30 fish per day was recorded. All the dead fish were covered with mycelium, characteristic of Saprolegnia sp., and were also found to be infected with the parasites Gyrodactilus sp. and Trichodina sp.
(§2) The water capacity in the pond was decreased to 3×10^4 L, and treatment with Blankophor® BA (50 mg/L) was initiated. A regimen of 3 treatments (8 h each) with 48 hours intervals between them was used.

[1] = tested on: Gyrodactilus sp. and Trichodina sp.; assay: Non-randomized field trial in a cement pond, concurrent parasitic disease; assay type: in vivo, hybrid tilapia; settings: 50 mg/L, 3 treatments of 8 h at 48 h intervals; 2 days after end
Experimental: as §1, §2

[2] = tested on: Lake Kinneret water samples; assay: Delayed Fluorescent Excitation Spectroscopy (DFES) of natural phytoplankton; assay type: cell-based; settings: 100 mg/L; 4.6 μg/L prior to exposure
From the text: (§3) The Delayed Fluorescent Excitation Spectroscopy (DFES) method was used for qualitative and quantitative assessment of the influence of Blankophor® BA on the natural population of phytoplankton, and on specific algae strains. Delayed fluorescence is a unique characteristic of photosynthetically active cells, as it is an outcome of recombination that takes place in the thylakoids in the dark (Yacobi Y. Z., V. Gerhardt, Y. Gonen-Zurgil, and A. Sukenik. 1998. Delayed fluorescence excitation spectroscopy: a rapid method for the qualitative and quantitative assessment of natural population of phytoplankton. Wat. Res. 00:1-6).
(§4) Samples from Lake Kinneret and pure cultures of Peridinium sp. and Microcystis sp. were exposed to Blankophor® BA (100 mg/L), for a few minutes and the concentration of chlorophyll-a was determined (in duplicate) according to the excitation spectrum examined (range from 400 to 730 nm). In addition, the exposed and non-exposed samples were assessed for carbon uptake with a ^14C technique.

Microcystis = assay: Delayed Fluorescent Excitation Spectroscopy (DFES) of pure algal culture; assay type: cell-based, Microcystis sp.; settings: 100 mg/L
From the text: as §3, §4

[3] = tested on: Chlorella, Microcystis, Peridinium, Melosira and Lake Kinneret samples; assay: 14C-carbon uptake study of photosynthetic activity; assay type: cell-based, phytoplankton; settings: 100 mg/L
Experimental: FIG. 6 illustrates the effect of exposure to Blankophor® BA (100 mg/L) (□) on photosynthetic activity in pure cultures of Chlorella (C), Microcystis (M), Peridinium (P) and Melosira (Me), and in samples from Lake Kinneret (LK), as determined by ^14C-uptake. Control, (▪).
as §4

O=S(=O)([O-])c1cc(Nc2nc(Nc3ccccc3)nc(N(CCO)CCO)n2)ccc1C=Cc1ccc(Nc2nc(Nc3ccccc3)nc(N(CCO)CCO)n2)cc1S(=O)(=O)[O-].[K+].[Na+] [Blankophor® BA]
efficacy in promoting survival of infected fish (S. parasitica): highly effective
presence of Saprolegnia sp. on visual and microscopic examination (Saprolegnia sp.; 3 treatments of 8 h at 48 h intervals, 2 days after end): free of
deaths recorded (Saprolegnia sp.; after the first 8 h treatment): no further deaths
prevalence and intensity of saprolegniosis (Saprolegnia sp.; after the first 8 h treatment): Significant reduction
presence of parasites on visual and microscopic examination [1]: free of
total chlorophyll concentration (average) [2]: 9.2 µg/L
photosynthetic activity versus non-treated samples (Microcystis): no difference
photosynthetic activity (14C-carbon uptake) [3]: did not decrease
